Among the data in US20100234351A1, “FUSED NITROGEN-COMPRISING HETEROCYCLIC COMPOUND” (TAKEDA PHARMACEUTICAL COMPANY LIMITED, priority 2006, published 2010) are inhibition values, retold here.

Structures can show the parent of a compound that is named as a salt.

T2 sequence (P04626 676-1255): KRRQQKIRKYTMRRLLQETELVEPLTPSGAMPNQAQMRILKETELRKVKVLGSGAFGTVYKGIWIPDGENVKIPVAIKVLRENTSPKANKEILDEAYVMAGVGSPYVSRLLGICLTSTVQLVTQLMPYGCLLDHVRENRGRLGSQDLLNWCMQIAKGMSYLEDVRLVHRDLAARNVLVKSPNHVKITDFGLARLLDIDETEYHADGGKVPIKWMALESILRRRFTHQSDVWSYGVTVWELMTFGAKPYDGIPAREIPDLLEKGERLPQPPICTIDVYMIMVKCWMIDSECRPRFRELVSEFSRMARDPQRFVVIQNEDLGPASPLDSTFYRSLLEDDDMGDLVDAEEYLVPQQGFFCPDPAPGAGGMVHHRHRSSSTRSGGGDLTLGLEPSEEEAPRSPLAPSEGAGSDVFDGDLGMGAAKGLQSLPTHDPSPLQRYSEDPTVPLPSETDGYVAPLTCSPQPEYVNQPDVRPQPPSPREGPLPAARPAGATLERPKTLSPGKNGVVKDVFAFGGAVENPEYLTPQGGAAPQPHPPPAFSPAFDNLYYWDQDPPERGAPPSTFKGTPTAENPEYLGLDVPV
T1 sequence (P00533 669-1210): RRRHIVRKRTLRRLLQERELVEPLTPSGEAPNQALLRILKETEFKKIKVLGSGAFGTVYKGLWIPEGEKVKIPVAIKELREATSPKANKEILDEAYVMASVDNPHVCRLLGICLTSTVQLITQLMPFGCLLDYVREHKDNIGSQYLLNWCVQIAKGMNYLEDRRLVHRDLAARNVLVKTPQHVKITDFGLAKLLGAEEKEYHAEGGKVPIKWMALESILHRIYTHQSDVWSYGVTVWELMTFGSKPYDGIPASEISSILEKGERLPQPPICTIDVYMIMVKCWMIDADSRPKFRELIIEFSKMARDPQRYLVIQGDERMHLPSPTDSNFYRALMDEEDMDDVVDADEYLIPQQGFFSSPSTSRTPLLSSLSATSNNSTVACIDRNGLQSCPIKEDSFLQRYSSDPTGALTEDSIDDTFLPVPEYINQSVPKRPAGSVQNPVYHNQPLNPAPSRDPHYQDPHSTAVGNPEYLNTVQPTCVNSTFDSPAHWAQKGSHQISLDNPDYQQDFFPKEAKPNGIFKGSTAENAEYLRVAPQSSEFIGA

One experiment concerns the target T1, EGFR intracellular domain (Homo sapiens, UniProt P00533).
T1 construct: made in house; host or cells: SF-21 insect cells infected with recombinant baculovirus BAC-EGFR
The experiment is described as follows: Assay of EGFR kinase inhibitory activity. Format: biochemical. To be noted: compound 1.0 μM, poly-Glu:Tyr (4:1) substrate, [γ-32P]ATP, read-out: Inhibitory rate (%) at 1.0 μM. The procedure:
Human EGFR gene was cloned by RT-PCR using total RNA prepared from A431 cell as a template. The primer used for RT-PCR was prepared from base sequence (Genbank Accession No. X00588) information of EGFR gene, adding DYKDDDD base sequence encoding the peptide and a restriction enzyme recognition sequence to a base sequence (2191-3819 of Genbank Accession No. X00588 as a base, and corresponding to 669-1210 amino acid of Genbank Accession No. NP_005219 as a protein) encoding the EGFR intracellular domain, so that a DYKDDDD peptide tag would be attached to the N-terminus of the protein. The base sequence of the primer is shown in below.
The RT reaction was performed using Superscript First-Strand Synthesis System for RT-PCR (Invitrogen), and PCR reaction was performed using KOD-plus kit (TOYOBO). The obtained PCR product was electrophoresed on agarose gel (1%), and the DNA fragment amplified by PCR was recovered from the gel, and then digested with restriction enzymes Sal I and Sph I. The DNA treated with the restriction enzymes was electrophoresed on agarose gel (1%), and the obtained DNA fragment was recovered and ligated to plasmid pFASTBAC1 (Invitrogen) digested with restriction enzymes Sal I and Sph I to give expression plasmid pFB-EGFR. The base sequence of the inserted fragment was confirmed and found to be identical with the base sequence of the EGFR intracellular domain (2191-3819 of Genbank Accession X00588). Furthermore, virus stock BAG-EGFR of recombinant Baculovirus was prepared using BAC-TO-BAC Baculovirus Expression System (Invitrogen).
SF-21 cells were sown at 1×10^6 cells/mL to 1 L of Sf-900II SFM medium (Invitrogen) containing 10% fetal calf serum (trace), 50 mg/L Gentamicin (Invitrogen) and 0.1% Pluronic F-68 (Invitrogen), and cultured with shaking in a 2 L Erlenmeyer flask at 27° C., 100 rpm. After culture for 24 hr, recombinant Baculovirus BAC-EGFR (13.4 mL) was added thereto, and the cells were further cultured for 3 days. The culture medium was centrifuged at 2,000 rpm for 5 min to give virus infected cells. The infected cells were washed with phosphate buffered saline (Invitrogen), centrifuged under the same conditions, and preserved at −80° C. The cryopreserved cells were thawed in ice and suspended in 30 mL of buffer A containing Complete Protease Inhibitor (Boehringer) (50 mM tris buffer (pH 7.4) containing 20% Glycerol, 0.15 M NaCl). The cells were disrupted 3 times at 20,000 rpm for 30 sec using a polytron homogenizer (Kinematica). The disrupt was clarified by centrifugation at 40,000 rpm for 30 min and filtered through a 0.45 μm filter. The filtrate was passed through a column packed with 4 mL of Anti-FLAG M2 Affinity Gel (Sigma Aldrich Co.) at a flow rate of about 0.5 mL/min. The column was washed with buffer A, and eluted with buffer A containing 100 μg/mL of FLAG peptide. The eluate was concentrated with Vivaspin 20 having a molecular weight cut off of 30 K (Vivascience). The concentrate was purified by gel filtration using Hi-Load 16/60 Superdex 200 pg (GE Healthcare Bioscience) equilibrated with buffer A. The fractions containing EGFR intracellular domain were collected and cryopreserved at −80° C.
EGFR kinase reaction was carried out using a 96-well plate. As a buffer for Kinase reaction, a buffer of a composition of 50 mM Tris-HCl (pH 7.5), 5 mM MnCl2, 2 mM dithiothreitol and 0.01% Tween-20 was used. […]
Regarding `O=C(NCCS(=O)(=O)CCO)C1=Cc2c(ncnc2Nc2ccc(Oc3cccc(C(F)(F)F)c3)c(Cl)c2)NCC1` [Example 147, 4-({3-chloro-4-[3-(trifluoromethyl)phenoxy]phenyl}amino)-N-{2-[(2-hydroxyethyl)sulfonyl]ethyl}-8,9-dihydro-7H-pyrimido[4,5-b]azepine-6-carboxamide], the inhibition at 1 µM was 95%.

On to `O=C(NCCCn1ccnc1)C1=Cc2c(ncnc2Nc2ccc(Oc3cccc(C(F)(F)F)c3)c(Cl)c2)NCC1` [Example 115, 4-({3-chloro-4-[3-(trifluoromethyl)phenoxy]phenyl}amino)-N-[3-(1H-imidazol-1-yl)propyl]-8,9-dihydro-7H-pyrimido[4,5-b]azepine-6-carboxamide], for which the inhibition at 1 µM came out at 95%.

Another experiment has as its target T2, HER2 intracellular domain (Homo sapiens, UniProt P04626).
T2 construct: made in house; host or cells: SF-21 insect cells infected with recombinant baculovirus BAC-HER2
Kind of experiment: Measurement of HER2 kinase inhibitory activity. It is filed as biochemical. Particulars: compound 1.0 μM, poly-Glu:Tyr (4:1) substrate, [γ-32P]ATP, read-out: Inhibitory rate (%) at 1.0 μM. The procedure: Human HER2 gene was cloned by RT-PCR using total RNA prepared from MCF7 cells as a template. The primer used for RT-PCR was prepared from base sequence (Genbank Accession No. M11730) information of HER2 gene, adding base sequence encoding DYKDDDD peptide and a restriction enzyme recognition sequence to a nucleotide sequence (2176-3918 of Genbank Accession No. M11730 as a base, and corresponding to 676-1255 amino acid of Genbank Accession No. NP_004439 as a protein) encoding the HER2 intracellular domain region, so that a DYKDDDD peptide tag would be attached to the N-terminus of the protein. The base sequence of the primer is shown in below.
The RT reaction was performed using Superscript First-Strand Synthesis System for RT-PCR (Invitrogen) and the PCR reaction was performed using KOD-plus kit (TOYOBO). The obtained PCR product was electrophoresed on agarose gel (1%), and the DNA fragment amplified by PCR was recovered from the gel, and then digested with restriction enzymes Sal I and Sph I. The DNA treated with the restriction enzymes was electrophoresed on agarose gel (1%), and the obtained DNA fragment was recovered and ligated to plasmid pFASTBAC1 (Invitrogen) digested with restriction enzymes Sal I and Sph I to give expression plasmid pFB-HER2. The base sequence of the inserted fragment was confirmed and found to be identical with the base sequence of HER2 intracellular domain (2176-3918 of Genbank Accession M11730). Furthermore, using BAC-TO-BAC Baculovirus Expression System (Invitrogen), recombinant baculovirus BAC-HER2 was prepared.
SF-21 cells were sown at 1×10^6 cells/mL to 1 L of Sf-900II SFM medium (Invitrogen) containing 10% fetal calf serum (trace), 50 mg/L gentamicin (Invitrogen) and 0.1% Pluronic F-68 (Invitrogen), and cultured with shaking in 2 L volume Erlenmeyer flask at 27° C., 100 rpm. After culturing for 24 hr, recombinant baculovirus BAC-HER2 (13.4 mL) was added thereto, and the cells were further cultured for 3 days. The culture medium was centrifuged at 2,000 rpm for 5 min to give virus-infected cells. The infected cells were washed with phosphate buffered saline (Invitrogen), centrifuged under the same conditions, and preserved at −80° C. The cryopreserved cells were thawed in ice and suspended in buffer A (50 mM Tris buffer (30 mL, pH 7.4) containing 20% glycerol, 0.15 M NaCl) supplemented with Complete Protease Inhibitor (Boehringer). The cells were ruptured 3 times with a Polytron homogenizer (Kinematica) at 20,000 rpm for 30 sec. The disrupt was clarified by centrifugation at 40,000 rpm for 30 min and filtered with a 0.45 μm filter. The filtrate was passed through a column packed with Anti-FLAG M2 Affinity Gel (4 mL, Sigma Aldrich CO.) at a flow rate of about 0.5 mL/min. The column was washed with buffer A, and eluted with buffer A containing 100 μg/mL of FLAG peptide. The eluate was concentrated with Vivaspin 20 (Vivascience) having a molecular weight cut off of 30K. The concentrate was purified by gel filtration using Hi-Load 16/60 Superdex 200pg (GE Healthcare Bioscience) equilibrated with buffer A. The fractions containing HER2 intracellular domain were collected and cryopreserved at −80° C.
HER2 kinase reaction was carried out using 96-well plate. As a buffer for Kinase reaction, a buffer of a composition of 50 mM Tris-HCl (pH 7.5), 5 mM MnCl2, 2 mM dithiothreitol and 0.01% Tween-20 was used. The compound of the present invention was dissolved in dimethyl sulfoxide (DMSO), and diluted with a buffer for kinase reaction so that the DMSO concentration would become 0.1% during kinase reaction. The compound solution (10 μL) was mixed with a buffer for kinase reaction (20 μL) containing the HER2 intracellular domain (0.625 μg/mL) obtained in Experimental Example 1B and a polypeptide substrate poly-Glu:Tyr (4:1) (12.5 μg/mL, Sigma Ltd.) and the mixture was stood for 5 min at room temperature. […]
Turning to `COC(=O)C1=Cc2c(ncnc2Nc2cnc(Oc3cccc(C(=O)NC(C)(C)C)c3)c(Cl)c2)NCC1` [Example 220, methyl 4-[(6-{3-[(tert-butylamino)carbonyl]phenoxy}-5-chloropyridin-3-yl)amino]-8,9-dihydro-7H-pyrimido[4,5-b]azepine-6-carboxylate], the inhibition at 1 µM came to 96%.

Take `CC(C)(C)NC(=O)c1cccc(Oc2ccc(Nc3ncnc4c3C=C(CNC(C)(C)CS(=O)(=O)CCO)CCN4)cc2Cl)c1` [Example 214, N-(tert-butyl)-3-[2-chloro-4-({6-[({2-[(2-hydroxyethyl)sulfonyl]-1,1-dimethylethyl}amino)methyl]-8,9-dihydro-7H-pyrimido[4,5-b]azepin-4-yl}amino)phenoxy]benzamide dihydrochloride]: the inhibition at 1 µM came out at 99%.

For `CC(C)(C)OC(=O)N1CCC(Oc2ccc(Nc3ncnc4c3C=C(CO)CCN4)cc2Cl)CC1` [Example 146, tert-butyl 4-(2-chloro-4-{[6-(hydroxymethyl)-8,9-dihydro-7H-pyrimido[4,5-b]azepin-4-yl]amino}phenoxy)piperidine-1-carboxylate], the inhibition at 1 µM came to 92%.

Regarding `COC(=O)C1=Cc2c(ncnc2Nc2ccc(Oc3cccc(C(=O)NC(C)(C)C)c3)c(Cl)c2)NCC1` [Example 135, methyl 4-[(4-{3-[(tert-butylamino)carbonyl]phenoxy}-3-chlorophenyl)amino]-8,9-dihydro-7H-pyrimido[4,5-b]azepine-6-carboxylate], the inhibition at 1 µM was determined as 97%.

Take `CC(C)(C)NC(=O)c1cccc(Oc2ccc(Nc3ncnc4c3C=C(CNCCF)CCN4)cc2Cl)c1` [Example 234, N-(tert-butyl)-3-{2-chloro-4-[(6-{[(2-fluoroethyl)amino]methyl}-8,9-dihydro-7H-pyrimido[4,5-b]azepin-4-yl)amino]phenoxy}benzamide]: the inhibition at 1 µM is 98%.

Turning to `CN(CCS(C)(=O)=O)CC1=Cc2c(ncnc2Nc2ccc(Oc3cccc(C(=O)NC(C)(C)C)c3)c(Cl)c2)NCC1` [Example 242, N-(tert-butyl)-3-(2-chloro-4-{[6-({methyl[2-(methylsulfonyl)ethyl]amino}methyl)-8,9-dihydro-7H-pyrimido[4,5-b]azepin-4-yl]amino}phenoxy)benzamide], the inhibition at 1 µM worked out at 99%.

As for `CCOC(=O)/C=C/C1=Cc2c(ncnc2Nc2ccc(Oc3cccc(C(=O)NC(C)(C)C)c3)c(Cl)c2)NCC1` [Example 246, ethyl (2E)-3-{4-[(4-{3-[(tert-butylamino)carbonyl]phenoxy}-3-chlorophenyl)amino]-8,9-dihydro-7H-pyrimido[4,5-b]azepin-6-yl}acrylate], the inhibition at 1 µM is 98%.

As for `CC(C)(CS(=O)(=O)CCO)NC(=O)C1=Cc2c(ncnc2Nc2ccc(Oc3cccc(C(F)(F)F)c3)c(Cl)c2)NCC1` [Example 172, 4-({3-chloro-4-[3-(trifluoromethyl)phenoxy]phenyl}amino)-N-{2-[(2-hydroxyethyl)sulfonyl]-1,1-dimethylethyl}-8,9-dihydro-7H-pyrimido[4,5-b]azepine-6-carboxamide], the inhibition at 1 µM amounted to 95%.

For the compound `CC(C)(C)NC(=O)c1cccc(Oc2ccc(Nc3ncnc4c3C=C(/C=N/OCCO)CCN4)cc2Cl)c1` [Example 231, N-(tert-butyl)-3-{2-chloro-4-[(6-{[(2-hydroxyethoxy)imino]methyl}-8,9-dihydro-7H-pyrimido[4,5-b]azepin-4-yl)amino]phenoxy}benzamide], the inhibition at 1 µM came to 97%.

Consider `CC(C)(CS(=O)(=O)CCO)NC(=O)C1=Cc2c(ncnc2Nc2ccc(Oc3cccc(S(=O)(=O)CC4CC4)c3)c(Cl)c2)NCC1` [Example 227, 4-[(3-chloro-4-{3-[(cyclopropylmethyl)sulfonyl]phenoxy}phenyl)amino]-N-{2-[(2-hydroxyethyl)sulfonyl]-1,1-dimethylethyl}-8,9-dihydro-7H-pyrimido[4,5-b]azepine-6-carboxamide], for which the inhibition at 1 µM is 93%.
